Experimental data: patent US20090298799A1, “Methods of Treating Osteoporosis and Secondary Hyperparathyroidism Using 20-Methyl, Gemini Vitamin D3 Compounds” (BioXell S.p.A., priority 2005, published 2009)

Key:
OVX rats = test: Osteoporosis, early curative treatment in 3 month old OVX rats; settings: for Tibia (μCT) increased over OVX controls / vertebrae (L5) increase over OVX control rats: 5/7 days for 3 weeks; for efficacy compared with calcitriol: 3 month old OVX rats
Experimental: Three-month old Sprague Dawley female rats were purchased from CERJ or Charles River, France. Rats underwent bilateral ovariectomy (OVX) or sham-operation (Sham) under anesthesia with intraperitoneal ketamine hydrochloride (50 mg/kg BW). The success of ovariectomy was evidenced at necropsy by weighing the uterus and visualizing the absence of ovarian tissue.
Throughout the whole experiment, rats were housed at 22±2° C. with a 12 h:12 h light-dark cycle. The animals were pair-fed a standard diet (Safe, 0.6% P, 0.8% Ca) and received Eau de Volvic ad libitum.
The treatment started 3 weeks post-ovariectomy. Compounds were firstly dissolved in ethanol (1 mg/ml). The other dilutions were done in Miglyol 812N. Compounds or vehicle (sham, OVX control rats) were given by daily oral gavage (5 ml/kg), 5/7 days for 3 weeks. […] Before the beginning of treatment, groups of sham and OVX rats were sacrificed to serve as basal controls. Ten and three days before sacrifice, rats were given subcutaneous injections of calcein (10 ml/kg, Sigma) to determine dynamic changes in bone tissue. The day before sacrifice, the rats were fasted and housed in metabolic cages to collect overnight urines.
At necropsy, right long bones were removed and fixed in 70% ethanol for further μCT (tibia and femur) and histomorphometry (tibia) analysis. The whole left legs were collected for pQCT analysis. The fourth and fifth lumbar vertebrae were dissected for DXA analysis. Excised tibias were scanned by a μCT machine (Scanco Medical) with software version 3.1 for a 2D-evaluation. The scans started at a distance of 1 mm of the reference line in the proximal tibia metaphysis. Five 0.5 mm-spaced slices were analyzed. The slice thickness was 20-30 μm. Bone volume (BV/TV) and trabeculae number (TbN) and thickness (TbTh) were assessed. Excised tibias were scanned by a pQCT machine (Stratec XCT Research SA+) with software version 5.4 to assess trabecular and cortical Bone Mineral Density (BMD) of proximal tibia metaphysis. For analysis of trabecular bone, the distance between the reference line and the first measurement line was 3 mm. Three other lines separated by 1 mm were analyzed. The cortical BMD was analyzed at 20 mm from the reference line. The voxel size was 0.10 mm. The peel mode used was 20/50. The BMD of excised fourth (L4) and fifth (L5) lumbar vertebrae were scanned by a DXA machine (Hologic QDR 4500) with software optimized for small animal studies. The regional high-resolution software selected a thin X-ray aperture. The large region was 68-71 and the narrow one was 35-21 to assess the body of the vertebrae of L4 and L5.
Left tibia from each rat was removed and dissected free of adjacent tissues. The bones were fixed in 70% ethanol, dehydrated in graded concentrations of ethanol, defatted in xylene, then embedded without decalcification in methyl methacrylate. Five μm-thick sections were made and stained with toluidine blue and cyanin solochrome and used for structural and cellular parameters evaluation. Ten μm-thick sections remained unstained for florescence microscopy observations. Structural and dynamic parameters were measured in the secondary spongiosa of the proximal tibial metaphysis situated about 1 mm distal from the growth plate-epiphyseal junction. Structural parameters, i.e. trabecular bone volume BV/TV (%), trabecular thickness (μm), connections and number, as well as cellular parameters (osteoblast, osteoid surfaces and osteoclast number), and dynamic parameters (mineralizing surface, mineral apposition rate, bone formation rate) were evaluated.
Osteocalcin (IRMA kit, Immutopics), DPyr (Metra DPD EIA kit), CTx (Ratlaps ELISA, Nordic, Bioscience Diagnostics) Ca, P, creatinin (Cobas Mira analyser) and rat PTH (Immutopics) were assessed in serum or urine material according to the manufacturer's instructions.

[1] = Determination of maximum tolerated dose (MTD) without hypercalcemia; set-up: species or system mice; settings: female, C57BL/6, mouse, in vivo, po; p.o. daily for four days; highest dose without hypercalcemia (serum calcium>10.7 mg/dl)
Experimental: The maximum tolerated dose of the vitamin D3 compounds of the invention were determined in eight week-old female C57BL/6 mice (3 mice/group) dosed orally (0.1 ml/mouse) with various concentrations of Vitamin D3 analogs daily for four days. Analogs were formulated in miglyol for a final concentration of 10, 30, 100 and 300 μg/kg when given at 0.1 ml/mouse p.o. daily. Blood for serum calcium assay was drawn by tail bleed on day five, the final day of the study. Serum calcium levels were determined using a colormetric assay (Sigma Diagnostics, procedure no. 597). The highest dose of analog tolerated without inducing hypercalcemia (serum calcium>10.7 mg/dl) was taken as the maximum tolerated does (MTD).

renin = test: Renin inhibition in vitro
nephrectomized rats = test: Secondary hyperparathyroidism, 5/6 nephrectomized (uremic) rats; format: in vivo, Sprague Dawley rats; settings: for efficacy in PTH suppression and bone porosity / results compared to Zemplar in PTH suppression, CaxP, bone porosity and aortic calcification / safety profile compared to Zemplar: rat, in vivo; for bone protection / efficacy: rats with moderate renal failure
Experimental: Three month-old Sprague Dawley male rats (220-250 g BW) were purchased from CERJ, France, Rats were ⅚ nephrectomized (right kidney and ⅔ left kidney removed by surgery) or sham-operated (controls) by the supplier according to Prostrakan'procedures. The success of nephrectomy was evidenced at necropsy by visualizing the kidney tissue and measuring serum creatinin and urea. There were 10-12 rats in each group. […] Twenty days after operation, phosphate (Na2HPO4) was added to Eau de Volvic (6 g/l). Experimental procedures were approved by the Animal Ethics Committee of Prostrakan and by DDSV of Seine St Denis, France. The treatment started 82 days post-nephrectomy. Compounds were firstly dissolved in ethanol (1 mg/ml). The other dilutions were done in Miglyol 812N. […] Before the beginning of treatment, groups of control and nephrectomized rats were sacrificed to served as basal controls.
The whole left legs were collected for pQCT analysis. […] Five 0.5 mm-spaced slices were analyzed. The slide thickness was 20-30 μm. Bone volume (BV/TV) and trabecular number (TbN) and thickness (TbTh) were assessed. […] Three other lines separated by 1 mm were analyzed. […] The voxel size was 0.10 mm. The peel mode used was 20/50.
Ten μm-thick sections remained unstained for fluorescence microscopy observations.
To assess the calcification, aortas (6 cm-segment starting at arch), hearts and remaining kidney tissues were removed and fixed for histology analysis. Aortas segments were fixed in 3.7% formaldehyde and embedded in paraffin. Five μm cross sections were made and stained with a Von Kossa method for the calcification evaluation. The following grading of the calcification was used: moderate when less 50% of the aortic perimeter was calcified; severe when 100% of the aortic perimeter was calcified.
Data were expressed as mean±sem. […] The ANOVA test was used for all groups.

IFN-γ production = IFN-γ production by allogeneic T cell activation in the mixed leukocyte response (MLR); format: cell-based; settings: 120 h; allogeneic PBMC from 2 donors, 5 days, ELISA
Experimental: Immature dendritic cells (DC) were prepared as described in Romani, N. et al., J. Immunol. Meth. 196.137. IFN-γ production by allogeneic T cell activation in the mixed leukocyte response (MLR) was determined as described in Penna, G., et al., J. Immunol., 164: 2405-2411 (2000).
Briefly, peripheral blood mononuclear cells (PBMC) were separated from buffy coats by Ficoll gradient and the same number (3×105) of allogeneic PBMC from 2 different donors were co-cultured in 96-well flat-bottom plates. After 5 days, IFN-γ production in the MLR assay was measured by ELISA and the results expressed as amount (nM) of test compound required to induce 50% inhibition of IFN-γ production (IC50) (Table 1).

SMILES | efficacy compared with calcitriol (OVX rats) | MTD at 4 days [1] [µg/kg] | inhibition of renin in vitro compared with calcitriol (renin) | results compared to Zemplar in the renin inhibition in vitro experiments (renin) | peritrabecular fibrosis (tibia) (nephrectomized rats; 0.1 μg/kg) | efficacy in PTH suppression and bone porosity (nephrectomized rats) | results compared to Zemplar in PTH suppression, CaxP, bone porosity and aortic calcification (nephrectomized rats) | safety profile compared to Zemplar (nephrectomized rats) | bone protection (nephrectomized rats) | efficacy (nephrectomized rats) | also measured
C=C1/C(=C\C=C2/CCC[C@@]3(C)C2CCC3[C@](C)(CC#CC(O)(C(F)(F)F)C(F)(F)F)CCCC(C)(C)O)CC(O)C[C@@H]1O (stereo partly drawn) [Compound 1, (20S)-1,25-Dihydroxy-20-(5,5,5-trifluoro-4-hydroxy-4-trifluoromethyl-pent-2-ynyl)-cholecalciferol] | greater efficacy than calcitriol | 0.3 | – | – | – | – | – | – | – | – | Tibia (μCT) increased over OVX controls (OVX rats; 0.3 μg/kg oral): 90%; vertebrae (L5) increase over OVX control rats (OVX rats; 0.3 μg/kg oral): 8%; efficacy vs. calcitrol on travecular bone volume (OVX rats; 0.3 μg/kg, FIG. 4): higher; Tibia (μCT) increased over OVX controls (OVX rats; 1 μg/kg oral): 114%; vertebrae (L5) increase over OVX control rats (OVX rats; 1 μg/kg oral): 12%
C=C1/C(=C\C=C2/CCC[C@@]3(C)C2CCC3[C@](C)(C/C=C\C(O)(C(F)(F)F)C(F)(F)F)CCCC(C)(C)O)CC(O)C[C@@H]1O (stereo partly drawn) [Compound 2, (20S)-1,25-Dihydroxy-20-((2Z)-5,5,5-trifluoro-4-hydroxy-4-trifluoromethyl-pent-2-enyl)cholecalciferol] | – | 0.3 | stronger inhibitition of renin in vitro over calcitriol | greater or equal positive results compared to Zemplar | one of ten rats | demonstrated efficacy | greater or equal positive results compared to Zemplar | equal or more beneficial results | provided bone protection on the tibia and vertebrae | good efficacy | osteoid thickening (tibia) (nephrectomized rats; 1 μg/kg): normal levels; rats with mild porous levels of femur cortical porosity (nephrectomized rats; 1 μg/kg): four of ten rats; femur cortical porosity (nephrectomized rats; 3 μg/kg): nine rats demonstrated normal levels; osteoid thickening (tibia) (nephrectomized rats; 3 μg/kg): normal levels; peritrabecular fibrosis (tibia) (nephrectomized rats; 3 μg/kg): normal levels
C=C1/C(=C\C=C2/CCC[C@@]3(C)C2CCC3[C@](C)(C/C=C/C(O)(C(F)(F)F)C(F)(F)F)CCCC(C)(C)O)CC(O)C[C@@H]1O (stereo partly drawn) [Compound 3, (20S)-1,25-Dihydroxy-20-[(2E)-5,5,5-trifluoro-4-hydroxy-4-trifluoromethyl-pent-2-enyl]-cholecalciferol] | greater efficacy than calcitriol | – | – | – | – | – | – | – | – | – | IC50 (IFN-γ production): 0.044 nM
C=C1/C(=C\C=C2/CCC[C@@]3(C)C2CCC3[C@@](C)(CC#CC(O)(C(F)(F)F)C(F)(F)F)CCCC(C)(C)O)CC(O)C[C@@H]1O (stereo partly drawn) [Compound 4, (20R)-1,25-Dihydroxy-20-(5,5,5-trifluoro-4-hydroxy-4-trifluoromethyl-pent-2-ynyl)-cholecalciferol] | – | – | stronger inhibitition of renin in vitro over calcitriol | greater or equal positive results compared to Zemplar | normal levels | demonstrated efficacy | greater or equal positive results compared to Zemplar | equal or more beneficial results | provided bone protection on the tibia and vertebrae | good efficacy | osteoid thickening (tibia) (nephrectomized rats; 0.03 μg): normal levels; peritrabecular fibrosis (tibia) (nephrectomized rats; 0.03 μg/kg): one of nine rats; rats with mild porous levels of femur cortical porosity (nephrectomized rats; 0.03 μg/kg): four of nine rats; osteoid thickening (tibia) (nephrectomized rats; 0.1 μg/kg): one of nine rats; rats with mild porous levels of femur cortical porosity (nephrectomized rats; 0.1 μg/kg): one of nine rats
C=C1/C(=C\C=C2/CCC[C@@]3(C)C2CCC3[C@@](C)(C/C=C/C(O)(C(F)(F)F)C(F)(F)F)CCCC(C)(C)O)CC(O)C[C@@H]1O (stereo partly drawn) [Compound 5, (20R)-1,25-Dihydroxy-20-[(2E)-5,5,5-trifluoro-4-hydroxy-4-trifluoromethyl-pent-2-enyl]-cholecalciferol] | – | 0.1 | – | – | – | – | – | – | – | – | –
C=C1/C(=C\C=C2/CCC[C@@]3(C)C2CCC3[C@](C)(CC#CC(O)(C(F)(F)F)C(F)(F)F)CCCC(C)(C)O)CC(O)C[C@@H]1F (stereo partly drawn) [Compound 6, (20S)-1α-Fluoro-25-hydroxy-20-(5,5,5-trifluoro-4-hydroxy-4-trifluoromethyl-pent-2-ynyl)-cholecalciferol] | – | 100 | – | – | – | – | – | – | – | – | –
